{
  "source": "the supplement of paper PMC10307832",
  "test_in_all_cases": "relative viability (nuclei count vs DMSO), 5 days (fraction); higher = more cells survive",
  "key": {"A-427": {"tested_on": "A-427", "in_short": "(§1)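 Relative viability is defined as nuclei in treated wells over nuclei in vehicle wells. Duplicate plates were run and medians reported. Lung cancer cell lines in 1536-well plates were dosed by pin tool one day after seeding, with one drug or with a fixed anchor-drug dose plus five library-drug doses (not always all listed) in √10 steps, and nuclei were counted after 5 days.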"}, "ABC-1": {"tested_on": "ABC-1", "in_short": "as §1"}, "CAL-12T": {"tested_on": "CAL-12T", "in_short": "as §1"}, "H3255": {"tested_on": "H3255", "in_short": "as §1"}, "LCLC-97TM1": {"tested_on": "LCLC-97TM1", "in_short": "as §1"}, "LK-2": {"tested_on": "LK-2", "in_short": "as §1"}, "NCI-H1355": {"tested_on": "NCI-H1355", "in_short": "as §1"}, "NCI-H1395": {"tested_on": "NCI-H1395", "in_short": "as §1"}, "NCI-H1651": {"tested_on": "NCI-H1651", "in_short": "as §1"}, "NCI-H1666": {"tested_on": "NCI-H1666", "in_short": "as §1"}, "NCI-H1792": {"tested_on": "NCI-H1792", "in_short": "as §1"}, "NCI-H1915": {"tested_on": "NCI-H1915", "in_short": "as §1"}, "NCI-H2085": {"tested_on": "NCI-H2085", "in_short": "as §1"}, "NCI-H2087": {"tested_on": "NCI-H2087", "in_short": "as §1"}, "NCI-H2228": {"tested_on": "NCI-H2228", "in_short": "as §1"}, "NCI-H322M": {"tested_on": "NCI-H322M", "in_short": "as §1"}, "NCI-H358": {"tested_on": "NCI-H358", "in_short": "as §1"}, "NCI-H661": {"tested_on": "NCI-H661", "in_short": "as §1"}, "NCI-H838": {"tested_on": "NCI-H838", "in_short": "as §1"}, "PC-14": {"tested_on": "PC-14", "in_short": "as §1"}, "PC-3 [JPC-3]": {"tested_on": "PC-3 [JPC-3]", "in_short": "as §1"}, "SK-MES-1": {"tested_on": "SK-MES-1", "in_short": "as §1"}, "UMC-11": {"tested_on": "UMC-11", "in_short": "as §1"}},
  "data": [
    {"compound": "Cc1cnc(-c2cnc(NCCNc3ccc(C#N)cn3)nc2-c2ccc(Cl)cc2Cl)[nH]1", "note": "+ Cc1nc(NC(=O)N2CCC[C@H]2C(N)=O)sc1-c1ccnc(C(C)(C)C(F)(F)F)c1 [Alpelisib] (partner 2 µM)", "values": [
      {"measurement": "relative viability", "setting": "A-427; first compound 0.08 µM", "result": 1.1},
      {"measurement": "relative viability", "setting": "A-427; first compound 0.253 µM", "result": 1.05},
      {"measurement": "relative viability", "setting": "A-427; first compound 0.8 µM", "result": 1.07},
      {"measurement": "relative viability", "setting": "A-427; first compound 2.53 µM", "result": 1.06},
      {"measurement": "relative viability", "setting": "ABC-1; first compound 0.08 µM", "result": 0.961},
      {"measurement": "relative viability", "setting": "ABC-1; first compound 0.253 µM", "result": 0.867},
      {"measurement": "relative viability", "setting": "ABC-1; first compound 0.8 µM", "result": 1.02},
      {"measurement": "relative viability", "setting": "ABC-1; first compound 2.53 µM", "result": 0.814},
      {"measurement": "relative viability", "setting": "CAL-12T; first compound 0.08 µM", "result": 1.2},
      {"measurement": "relative viability", "setting": "CAL-12T; first compound 0.253 µM", "result": 1.16},
      {"measurement": "relative viability", "setting": "CAL-12T; first compound 0.8 µM", "result": 1.2},
      {"measurement": "relative viability", "setting": "CAL-12T; first compound 2.53 µM", "result": 0.848},
      {"measurement": "relative viability", "setting": "H3255; first compound 0.08 µM", "result": 0.886},
      {"measurement": "relative viability", "setting": "H3255; first compound 0.253 µM", "result": 0.618},
      {"measurement": "relative viability", "setting": "H3255; first compound 0.8 µM", "result": 0.802},
      {"measurement": "relative viability", "setting": "H3255; first compound 2.53 µM", "result": 0.73},
      {"measurement": "relative viability", "setting": "LCLC-97TM1; first compound 0.08 µM", "result": 0.28},
      {"measurement": "relative viability", "setting": "LCLC-97TM1; first compound 0.253 µM", "result": 0.176},
      {"measurement": "relative viability", "setting": "LCLC-97TM1; first compound 0.8 µM", "result": 0.251},
      {"measurement": "relative viability", "setting": "LCLC-97TM1; first compound 2.53 µM", "result": 0.323},
      {"measurement": "relative viability", "setting": "LK-2; first compound 0.08 µM", "result": 1.21},
      {"measurement": "relative viability", "setting": "LK-2; first compound 0.253 µM", "result": 1.05},
      {"measurement": "relative viability", "setting": "LK-2; first compound 0.8 µM", "result": 1.13},
      {"measurement": "relative viability", "setting": "LK-2; first compound 2.53 µM", "result": 1.3},
      {"measurement": "relative viability", "setting": "NCI-H1355; first compound 0.08 µM", "result": 0.801},
      {"measurement": "relative viability", "setting": "NCI-H1355; first compound 0.253 µM", "result": 0.752},
      {"measurement": "relative viability", "setting": "NCI-H1355; first compound 0.8 µM", "result": 0.786},
      {"measurement": "relative viability", "setting": "NCI-H1355; first compound 2.53 µM", "result": 0.783},
      {"measurement": "relative viability", "setting": "NCI-H1395; first compound 0.08 µM", "result": 1.23},
      {"measurement": "relative viability", "setting": "NCI-H1395; first compound 0.253 µM", "result": 1.03},
      {"measurement": "relative viability", "setting": "NCI-H1395; first compound 0.8 µM", "result": 1.41},
      {"measurement": "relative viability", "setting": "NCI-H1395; first compound 2.53 µM", "result": 0.971},
      {"measurement": "relative viability", "setting": "NCI-H1651; first compound 0.08 µM", "result": 1.08},
      {"measurement": "relative viability", "setting": "NCI-H1651; first compound 0.253 µM", "result": 0.903},
      {"measurement": "relative viability", "setting": "NCI-H1651; first compound 0.8 µM", "result": 0.965},
      {"measurement": "relative viability", "setting": "NCI-H1651; first compound 2.53 µM", "result": 0.991},
      {"measurement": "relative viability", "setting": "NCI-H1666; first compound 0.08 µM", "result": 1},
      {"measurement": "relative viability", "setting": "NCI-H1666; first compound 0.253 µM", "result": 0.919},
      {"measurement": "relative viability", "setting": "NCI-H1666; first compound 0.8 µM", "result": 0.831},
      {"measurement": "relative viability", "setting": "NCI-H1666; first compound 2.53 µM", "result": 1.07},
      {"measurement": "relative viability", "setting": "NCI-H1792; first compound 0.08 µM", "result": 0.736},
      {"measurement": "relative viability", "setting": "NCI-H1792; first compound 0.253 µM", "result": 0.639},
      {"measurement": "relative viability", "setting": "NCI-H1792; first compound 0.8 µM", "result": 0.625},
      {"measurement": "relative viability", "setting": "NCI-H1792; first compound 2.53 µM", "result": 0.674},
      {"measurement": "relative viability", "setting": "NCI-H1915; first compound 0.08 µM", "result": 1.08},
      {"measurement": "relative viability", "setting": "NCI-H1915; first compound 0.8 µM", "result": 1.09},
      {"measurement": "relative viability", "setting": "NCI-H1915; first compound 2.53 µM", "result": 1.01},
      {"measurement": "relative viability", "setting": "NCI-H2085; first compound 0.08 µM", "result": 1.13},
      {"measurement": "relative viability", "setting": "NCI-H2085; first compound 0.253 µM", "result": 1.03},
      {"measurement": "relative viability", "setting": "NCI-H2085; first compound 0.8 µM", "result": 0.94},
      {"measurement": "relative viability", "setting": "NCI-H2085; first compound 2.53 µM", "result": 0.961},
      {"measurement": "relative viability", "setting": "NCI-H2087; first compound 0.08 µM", "result": 1.21},
      {"measurement": "relative viability", "setting": "NCI-H2087; first compound 0.253 µM", "result": 0.892},
      {"measurement": "relative viability", "setting": "NCI-H2087; first compound 0.8 µM", "result": 1.02},
      {"measurement": "relative viability", "setting": "NCI-H2087; first compound 2.53 µM", "result": 1.06},
      {"measurement": "relative viability", "setting": "NCI-H2228; first compound 0.08 µM", "result": 0.931},
      {"measurement": "relative viability", "setting": "NCI-H2228; first compound 0.253 µM", "result": 0.7},
      {"measurement": "relative viability", "setting": "NCI-H2228; first compound 0.8 µM", "result": 0.987},
      {"measurement": "relative viability", "setting": "NCI-H2228; first compound 2.53 µM", "result": 0.717},
      {"measurement": "relative viability", "setting": "NCI-H322M; first compound 0.08 µM", "result": 0.773},
      {"measurement": "relative viability", "setting": "NCI-H322M; first compound 0.253 µM", "result": 0.754},
      {"measurement": "relative viability", "setting": "NCI-H322M; first compound 0.8 µM", "result": 0.709},
      {"measurement": "relative viability", "setting": "NCI-H322M; first compound 2.53 µM", "result": 0.733},
      {"measurement": "relative viability", "setting": "NCI-H358; first compound 0.08 µM", "result": 0.955},
      {"measurement": "relative viability", "setting": "NCI-H358; first compound 0.253 µM", "result": 0.714},
      {"measurement": "relative viability", "setting": "NCI-H358; first compound 0.8 µM", "result": 0.843},
      {"measurement": "relative viability", "setting": "NCI-H358; first compound 2.53 µM", "result": 0.729},
      {"measurement": "relative viability", "setting": "NCI-H661; first compound 0.08 µM", "result": 0.419},
      {"measurement": "relative viability", "setting": "NCI-H661; first compound 0.253 µM", "result": 0.645},
      {"measurement": "relative viability", "setting": "NCI-H661; first compound 0.8 µM", "result": 0.76},
      {"measurement": "relative viability", "setting": "NCI-H661; first compound 2.53 µM", "result": 0.654},
      {"measurement": "relative viability", "setting": "NCI-H838; first compound 0.08 µM", "result": 1.06},
      {"measurement": "relative viability", "setting": "NCI-H838; first compound 0.253 µM", "result": 0.951},
      {"measurement": "relative viability", "setting": "NCI-H838; first compound 0.8 µM", "result": 1.18},
      {"measurement": "relative viability", "setting": "NCI-H838; first compound 2.53 µM", "result": 1.41},
      {"measurement": "relative viability", "setting": "PC-14; first compound 0.08 µM", "result": 0.927},
      {"measurement": "relative viability", "setting": "PC-14; first compound 0.253 µM", "result": 0.834},
      {"measurement": "relative viability", "setting": "PC-14; first compound 0.8 µM", "result": 0.924},
      {"measurement": "relative viability", "setting": "PC-14; first compound 2.53 µM", "result": 0.802},
      {"measurement": "relative viability", "setting": "PC-3 [JPC-3]; first compound 0.08 µM", "result": 1},
      {"measurement": "relative viability", "setting": "PC-3 [JPC-3]; first compound 0.253 µM", "result": 0.934},
      {"measurement": "relative viability", "setting": "PC-3 [JPC-3]; first compound 0.8 µM", "result": 1.02},
      {"measurement": "relative viability", "setting": "PC-3 [JPC-3]; first compound 2.53 µM", "result": 1.01},
      {"measurement": "relative viability", "setting": "SK-MES-1; first compound 0.08 µM", "result": 1.01},
      {"measurement": "relative viability", "setting": "SK-MES-1; first compound 0.253 µM", "result": 0.888},
      {"measurement": "relative viability", "setting": "SK-MES-1; first compound 2.53 µM", "result": 0.911},
      {"measurement": "relative viability", "setting": "UMC-11; first compound 0.08 µM", "result": 0.844},
      {"measurement": "relative viability", "setting": "UMC-11; first compound 0.253 µM", "result": 0.903},
      {"measurement": "relative viability", "setting": "UMC-11; first compound 0.8 µM", "result": 1.02},
      {"measurement": "relative viability", "setting": "UMC-11; first compound 2.53 µM", "result": 0.908}
    ]}
  ]
}
